According to US20250313546A1, “NUCLEIC ACID BINDERS” (UNIVERSITY OF STRATHCLYDE, priority 2022, published 2025):
Converted amounts (≈) assume the structure as drawn.

Experiments:
[1] = system: Staphylococcus aureus (ATCC 43300); test: Antibacterial MIC, broth microdilution (CLSI); format: cell-based; conditions: for MIC80: Staphylococcus aureus, ATCC43300, read-out: MIC80 S. aureus; for S. aureus Selectivity Indices, Group / S. aureus Selectivity Index (SI): SI, IC50 (μM)/MIC80 (μM), HEK293 cytotoxicity; for S. aureus Selectivity Indices, Group: Quaternary ammoniums; for S. aureus Selectivity Index (SI): numeric value
[2] = system: Enterococcus faecalis (ATCC 51299); test: Antibacterial MIC, broth microdilution (CLSI); format: cell-based; conditions: for MIC80: Enterococcus faecalis, ATCC51299, read-out: MIC80 E. faecalis
[3] = system: Escherichia coli (ATCC 25922); test: Antibacterial MIC, broth microdilution (CLSI); format: cell-based; conditions: Escherichia coli, ATCC25922; read-out: MIC80 E. coli
[4] = system: Genomic double stranded DNA (salmon); test: Fluorescence intercalator displacement (FID) assay, SYBR-safe probe; conditions: 20 μM compound, 30° C., lower % = stronger binding
How it was run: (§1)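 Compound at 20 μM mixed with 3.76 ng/mL polyAU dsRNA or salmon genomic dsDNA and 12500-fold diluted SybrSafe in 1 mM phosphate buffer pH 7.4, then heated to 30 °C and fluorescence read. Reduction is expressed as normalised %, with nucleic acid plus probe as maximum and probe alone as minimum.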

[5] = system: PolyAU double stranded RNA; test: as above; conditions: 20 μM compound, 30° C., lower % = stronger binding
How it was run: as §1

C. neoformans (F10025) = conditions: Cryptococcus neoformans, read-out: MIC99 C. neoformans
[6] = system: A. fumigatus A1160 (MFIG001); conditions: Aspergillus fumigatus, read-out: MIC99 A. fumigatus A1160
[7] = system: Candida glabrata (ACPF3309); conditions: Nakaseomyces glabratus, read-out: MIC99 Candida glabrata
Method: The Minimum Inhibitory Concentration (MIC, at 99% inhibition) of the compounds was determined using the broth microdilution method as recommended by EUCAST (EUCAST Definitive Document E.DEF 9.3.2, Method for the determination of broth dilution minimum inhibitory concentrations of antifungal agents for conidia forming moulds and EUCAST Definitive Document E.DEF 7.3.2 Method for the determination of broth dilution minimum inhibitory concentrations of antifungal agents for yeasts).

T. vaginalis = test: Trichomonas resorufin assay; format: cell-based; conditions: for IC50: Trichomonas vaginalis, read-out: IC50 T. vaginalis; for T. vaginalis Selectivity Indices, Group / T. vaginalis Selectivity Index (SI): SI, IC50 (μM)/IC50 (μM), HEK293 cytotoxicity; for T. vaginalis Selectivity Indices, Group: Quaternary ammoniums; for T. vaginalis Selectivity Index (SI): numeric value
[8] = SI, IC50 (μM)/MIC80 (μM), HEK293 cytotoxicity, Quaternary ammoniums

Structure (SMILES)	MIC80 [1] [µM]	MIC80 [2] [µM]	MIC80 [3] [µM]	% Normalised Fluorescence with gDNA [4] [%]	% Normalised Fluorescence with polyAU RNA [5] [%]	MIC99 (C. neoformans (F10025)) [µg/mL]	MIC99 [6] [µg/mL]	MIC99 [7] [µg/mL]	E. faecalis Selectivity Indices, Group ([2]; SI, IC50 (μM)/MIC80 (μM), HEK293 cytotoxicity, Alkyl Amidines and NH Pyrroles)	IC50 (T. vaginalis) [µM]	E. faecalis Selectivity Indices, Group [2, 8]	E. faecalis Selectivity Index (SI) ([2]; SI, IC50 (μM)/MIC80 (μM), HEK293 cytotoxicity, numeric value)	T. vaginalis Selectivity Indices, Group (T. vaginalis)	T. vaginalis Selectivity Index (SI) (T. vaginalis)	S. aureus Selectivity Indices, Group [1]	S. aureus Selectivity Index (SI) [1]
CN(C)CCCN(CCCN(C)C)C(=O)c1cc(NC(=O)c2cc(NC(=O)c3ccc(/C=C/c4cnc5ccccc5c4)cc3)cn2C)cn1C [IVa9, (E)-N,N-bis(3-(dimethylamino)propyl)-1-methyl-4-(1-methyl-4-(4-(2-(quinolin-3-yl)vinyl)benzamido)-1H-pyrrole-2-carboxamido)-1H-pyrrole-2-carboxamide]	25 to 100 (≈ 17.2 to 68.9 µg/mL)	> 100	> 100	3	4	25 to 50 (≈ 36.3 to 72.6 µM)	> 50	25 to 50 (≈ 36.3 to 72.6 µM)	–	–	–	–	–	–	–	–
CCNC(=N)CCNC(=O)c1cc(NC(=O)c2cc(NC(=O)c3ccc(/C=C/c4cccc(OC)c4)cc3)cn2C)cn1C [Ia22, (E)-N-(3-(ethylamino)-3-iminopropyl)-4-(4-(4-(3-methoxystyryl)benzamido)-1-methyl-1H-pyrrole-2-carboxamido)-1-methyl-1H-pyrrole-2-carboxamide]	5 to 25 (≈ 2.98 to 14.9 µg/mL)	< 5	> 100	3	5	25 to 50 (≈ 42 to 83.9 µM)	> 50	5 to 25 (≈ 8.39 to 42 µM)	C (Group C: 5 < SI <= 10)	1 to 5	–	–	–	–	–	–
CCCCCCC/N=C(\CCNC(=O)c1cc(NC(=O)c2cc(NC(=O)c3ccc(/C=C/c4ccc(N(C)C)cc4)nc3)cn2C)cn1C)NCCCCCCC [Ia33, 6-((E)-4-(dimethylamino)styryl)-N-(5-((5-(((E)-3-(heptylamino)-3-(heptylimino)propyl)carbamoyl)-1-methyl-1H-pyrrol-3-yl)carbamoyl)-1-methyl-1H-pyrrol-3-yl)nicotinamide]	5 to 25 (≈ 3.89 to 19.5 µg/mL)	25 to 100 (≈ 19.5 to 77.8 µg/mL)	> 100	49	24	25 to 50 (≈ 32.1 to 64.3 µM)	> 50	> 50	–	5 to 50	–	–	–	–	–	–
CCCCCCCCCNC(=N)CCNC(=O)c1cc(NC(=O)c2cc(NC(=O)c3ccc(/C=C/c4cnc5ccccc5c4)cc3)cn2C)cn1C [Ia36, (E)-N-(3-imino-3-(nonylamino)propyl)-1-methyl-4-(1-methyl-4-(4-(2-(quinolin-3-yl)vinyl)benzamido)-1H-pyrrole-2-carboxamido)-1H-pyrrole-2-carboxamide]	5 to 25 (≈ 3.57 to 17.9 µg/mL)	25 to 100 (≈ 17.9 to 71.5 µg/mL)	> 100	11	4	> 50	> 50	25 to 50 (≈ 35 to 69.9 µM)	–	5 to 50	–	–	–	–	–	–
CC[N+](C)(C)CCNC(=O)c1cc(NC(=O)c2cc(NC(=O)c3ccc(/C=C/c4cnc5ccccc5c4)cc3)cn2C)cn1C [Ic1, (E)-N-ethyl-N,N-dimethyl-2-(1-methyl-4-(1-methyl-4-(4-(2-(quinolin-3-yl)vinyl)benzamido)-1H-pyrrole-2-carboxamido)-1H-pyrrole-2-carboxamido)ethan-1-aminium]	< 5	< 5	> 100	–	–	5 to 25	> 50	5 to 25	–	< 1	–	–	–	–	–	–
CCC[N+](C)(C)CCNC(=O)c1cc(NC(=O)c2cc(NC(=O)c3ccc(/C=C/c4cnc5ccccc5c4)cc3)cn2C)cn1C [Ic2, (E)-N,N-dimethyl-N-(2-(1-methyl-4-(1-methyl-4-(4-(2-(quinolin-3-yl)vinyl)benzamido)-1H-pyrrole-2-carboxamido)-1H-pyrrole-2-carboxamido)ethyl)propan-1-aminium]	< 5	< 5	> 100	–	–	5 to 25	> 50	< 5	–	< 1	–	–	–	–	–	–
CCCC[N+](C)(C)CCNC(=O)c1cc(NC(=O)c2cc(NC(=O)c3ccc(/C=C/c4cnc5ccccc5c4)cc3)cn2C)cn1C [Ic3, (E)-N,N-dimethyl-N-(2-(1-methyl-4-(1-methyl-4-(4-(2-(quinolin-3-yl)vinyl)benzamido)-1H-pyrrole-2-carboxamido)-1H-pyrrole-2-carboxamido)ethyl)butan-1-aminium]	< 5	< 5	> 100	–	–	5 to 25	> 50	5 to 25	–	1 to 5	D (Group D: SI > 5)	11	D (Group D: SI > 3)	6	–	–
CCCCC[N+](C)(C)CCNC(=O)c1cc(NC(=O)c2cc(NC(=O)c3ccc(/C=C/c4cnc5ccccc5c4)cc3)cn2C)cn1C [Ic4, (E)-N,N-dimethyl-N-(2-(1-methyl-4-(1-methyl-4-(4-(2-(quinolin-3-yl)vinyl)benzamido)-1H-pyrrole-2-carboxamido)-1H-pyrrole-2-carboxamido)ethyl)pentan-1-aminium]	< 5	< 5	> 100	–	–	5 to 25	> 50	5 to 25	–	1 to 5	C (Group C: 2 < SI <= 5)	–	D (Group D: SI > 3)	4	D (Group D: SI > 10)	11
CCCCCCCC[N+](C)(C)CCNC(=O)c1cc(NC(=O)c2cc(NC(=O)c3ccc(/C=C/c4cnc5ccccc5c4)cc3)cn2C)cn1C [Ic7, (E)-N,N-dimethyl-N-(2-(1-methyl-4-(1-methyl-4-(4-(2-(quinolin-3-yl)vinyl)benzamido)-1H-pyrrole-2-carboxamido)-1H-pyrrole-2-carboxamido)ethyl)octan-1-aminium]	< 5	> 100	> 100	–	–	5 to 25	> 50	5 to 25	–	5 to 50	–	–	–	–	D (Group D: SI > 10)	13
CCCCCCCCC[N+](C)(C)CCNC(=O)c1cc(NC(=O)c2cc(NC(=O)c3ccc(/C=C/c4cnc5ccccc5c4)cc3)cn2C)cn1C [Ic8, (E)-N,N-dimethyl-N-(2-(1-methyl-4-(1-methyl-4-(4-(2-(quinolin-3-yl)vinyl)benzamido)-1H-pyrrole-2-carboxamido)-1H-pyrrole-2-carboxamido)ethyl)nonan-1-aminium]	< 5	> 100	> 100	–	–	25 to 50	> 50	5 to 25	–	5 to 50	–	–	–	–	C (Group C: 5 < SI <= 10)	6
CCCCCCCCCCC[N+](C)(C)CCNC(=O)c1cc(NC(=O)c2cc(NC(=O)c3ccc(/C=C/c4cnc5ccccc5c4)cc3)cn2C)cn1C [Ic10, (E)-N,N-dimethyl-N-(2-(1-methyl-4-(1-methyl-4-(4-(2-(quinolin-3-yl)vinyl)benzamido)-1H-pyrrole-2-carboxamido)-1H-pyrrole-2-carboxamido)ethyl)undecan-1-aminium]	5 to 25	> 100	> 100	–	–	> 50	> 50	25 to 50	–	5 to 50	–	–	–	–	–	–
CCCCCCCCCCCC[N+](C)(C)CCNC(=O)c1cc(NC(=O)c2cc(NC(=O)c3ccc(/C=C/c4cnc5ccccc5c4)cc3)cn2C)cn1C [Ic11, (E)-N,N-dimethyl-N-(2-(1-methyl-4-(1-methyl-4-(4-(2-(quinolin-3-yl)vinyl)benzamido)-1H-pyrrole-2-carboxamido)-1H-pyrrole-2-carboxamido)ethyl)dodecan-1-aminium]	5 to 25	25 to 100	> 100	–	–	> 50	> 50	5 to 25	–	5 to 50	–	–	–	–	–	–
CCCCCCCCCCCCCCC[N+](C)(C)CCNC(=O)c1cc(NC(=O)c2cc(NC(=O)c3ccc(/C=C/c4cnc5ccccc5c4)cc3)cn2C)cn1C [Ic14, (E)-N,N-dimethyl-N-(2-(1-methyl-4-(1-methyl-4-(4-(2-(quinolin-3-yl)vinyl)benzamido)-1H-pyrrole-2-carboxamido)-1H-pyrrole-2-carboxamido)ethyl)pentadecan-1-aminium]	–	–	–	–	–	> 50	> 50	25 to 50	–	5 to 50	–	–	–	–	–	–
CCCCCCCCCCCCCCCC[N+](C)(C)CCNC(=O)c1cc(NC(=O)c2cc(NC(=O)c3ccc(/C=C/c4cnc5ccccc5c4)cc3)cn2C)cn1C [Ic15, (E)-N,N-dimethyl-N-(2-(1-methyl-4-(1-methyl-4-(4-(2-(quinolin-3-yl)vinyl)benzamido)-1H-pyrrole-2-carboxamido)-1H-pyrrole-2-carboxamido)ethyl)hexadecan-1-aminium]	–	–	–	–	–	25 to 50	> 50	> 50	–	5 to 50	–	–	–	–	–	–
